For 30 compounds, IC50 results are on record in US10189841B2, “Purinones as ubiquitin-specific protease 1 inhibitors” (Forma Therapeutics, Inc., priority 2015, dated 2019).

In general, IC50 refers to the concentration that gives 50% inhibition. The low end stands for inhibition by little substance, the high end for a need for much substance.

Chain of USP1 (construct USP1 (I-785, GG670, 671AA)/UAF1 (I-677)-Flag) (O94782 whole entry G670A/G671A): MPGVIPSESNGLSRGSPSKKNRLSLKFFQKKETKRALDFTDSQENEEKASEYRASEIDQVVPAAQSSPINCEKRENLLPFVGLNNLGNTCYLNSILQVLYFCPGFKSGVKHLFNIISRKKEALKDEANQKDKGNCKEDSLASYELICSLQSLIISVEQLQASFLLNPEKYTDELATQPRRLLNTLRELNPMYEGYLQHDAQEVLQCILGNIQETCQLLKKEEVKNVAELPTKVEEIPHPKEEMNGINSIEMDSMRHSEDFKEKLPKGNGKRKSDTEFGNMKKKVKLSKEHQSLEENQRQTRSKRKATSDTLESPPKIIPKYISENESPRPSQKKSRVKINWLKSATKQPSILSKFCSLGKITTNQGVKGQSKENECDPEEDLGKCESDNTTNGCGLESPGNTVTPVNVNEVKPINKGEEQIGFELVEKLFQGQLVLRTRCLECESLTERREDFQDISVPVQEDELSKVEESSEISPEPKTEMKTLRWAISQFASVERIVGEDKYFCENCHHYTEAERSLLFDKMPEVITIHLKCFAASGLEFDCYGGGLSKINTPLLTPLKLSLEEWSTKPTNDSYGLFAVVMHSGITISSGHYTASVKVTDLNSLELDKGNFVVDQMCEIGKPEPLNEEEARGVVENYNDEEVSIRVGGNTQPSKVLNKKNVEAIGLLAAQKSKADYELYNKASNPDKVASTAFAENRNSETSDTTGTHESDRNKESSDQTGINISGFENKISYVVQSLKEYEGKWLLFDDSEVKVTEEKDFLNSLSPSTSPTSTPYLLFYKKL
Chain of USP1 (construct USP1 (I-785, GG670, 671AA)/UAF1 (I-677)-Flag) (Q8TAF3 whole entry partner): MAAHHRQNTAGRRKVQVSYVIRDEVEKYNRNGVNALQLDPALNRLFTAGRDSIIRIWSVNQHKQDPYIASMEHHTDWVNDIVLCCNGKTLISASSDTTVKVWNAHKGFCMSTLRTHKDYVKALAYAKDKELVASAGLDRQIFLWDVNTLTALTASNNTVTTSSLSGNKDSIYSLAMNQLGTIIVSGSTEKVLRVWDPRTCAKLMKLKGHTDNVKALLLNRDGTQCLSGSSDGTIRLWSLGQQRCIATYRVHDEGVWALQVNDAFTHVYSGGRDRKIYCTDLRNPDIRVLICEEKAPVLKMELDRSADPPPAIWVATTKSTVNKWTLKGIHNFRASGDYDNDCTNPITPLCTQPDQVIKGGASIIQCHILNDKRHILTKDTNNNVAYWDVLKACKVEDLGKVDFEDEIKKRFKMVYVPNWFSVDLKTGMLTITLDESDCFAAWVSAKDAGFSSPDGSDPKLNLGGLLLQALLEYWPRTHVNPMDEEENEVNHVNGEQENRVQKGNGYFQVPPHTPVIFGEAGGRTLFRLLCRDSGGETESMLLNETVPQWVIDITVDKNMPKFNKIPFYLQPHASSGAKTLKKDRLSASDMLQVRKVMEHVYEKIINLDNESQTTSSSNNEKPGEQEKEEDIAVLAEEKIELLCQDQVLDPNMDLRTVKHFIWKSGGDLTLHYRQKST

The target of this test is USP1 (construct USP1 (I-785, GG670, 671AA)/UAF1 (I-677)-Flag) (Homo sapiens (Human), UniProt O94782, G670A/G671A). In words: Ubiquitin-Rhodamine 110 assay for USP1 activity. The class given is biochemical. As to conditions: USP1/UAF1 25 pM, Ub-Rh110 25 nM, 30 min preincubation. The essentials:
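Two formats with the USP1/UAF1 complex and 25 nM ubiquitin-rhodamine 110 in pH 8.0 Tris buffer with calcium, glutathione and detergent. Single-point screening used 10 µM, 100 pM enzyme and 45 min. Inhibition was set against no-enzyme and DMSO wells.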
Compound `CC(C)c1ccccc1-c1ncc2[nH]c(=O)n([C@H](C)c3ccc(-c4nccn4C)cc3)c2n1` [Compound I-309, (R)-2-(2-isopropylphenyl)-9-(1-(4-(1-methyl-1H-imidazol-2-yl)phenyl)ethyl)-7,9-dihydro-8H-purin-8-one] returned an IC50 of under 50 nM.

Turning to `CC(C)c1ccccc1-c1ncc2[nH]c(=O)n(Cc3ccc4c(c3)CN(C)C4=O)c2n1` [Compound I-186, 2-(2-isopropylphenyl)-9-((2-methyl-1-oxoisoindolin-5-yl)methyl)-7,9-dihydro-8H-purin-8-one], the IC50 was in the range of 50 to 200 nM.

Consider `CC(=O)N1CCC(c2ccn(-c3ccc(Cn4c(=O)[nH]c5cnc(-c6cccnc6OCC(F)(F)F)nc54)cc3)n2)CC1` [Compound I-466, 9-(4-(3-(1-acetylpiperidin-4-yl)-1H-pyrazol-1-yl)benzyl)-2-(2-(2,2,2-trifluoroethoxy)pyridin-3-yl)-7,9-dihydro-8H-purin-8-one], for which the IC50 lay in the range of 200 to 2000 nM.

Turning to `CC(C)c1ncccc1-c1ncc2c(n1)n(Cc1ccc(-n3nc(C(F)(F)F)cc3N3CCOCC3)cc1)c(=O)n2C` [Compound I-117, 2-(2-isopropylpyridin-3-yl)-7-methyl-9-(4-(5-morpholino-3-(trifluoromethyl)-1H-pyrazol-1-yl)benzyl)-7,9-dihydro-8H-purin-8-one], the IC50 is under 50 nM.

Compound `CC(C)c1ccccc1-c1ncc2[nH]c(=O)n(Cc3ccc(C(=O)Nc4nccn4C)cc3)c2n1` [Compound I-372, 4-((2-(2-isopropylphenyl)-8-oxo-7,8-dihydro-9H-purin-9-yl)methyl)-N-(1-methyl-1H-imidazol-2-yl)benzamide] gave an IC50 of 50 to 200 nM.

`CC(C)c1ccccc1-c1ncc2c(n1)n(Cc1ccc(NC(=O)NC3CC3)cc1)c(=O)n2C` [Compound I-483, 1-cyclopropyl-3-(4-((2-(2-isopropylphenyl)-7-methyl-8-oxo-7,8-dihydro-9H-purin-9-yl)methyl)phenyl)urea] showed a half-maximal inhibitory concentration (IC50) of 200 to 2000 nM.

The compound `CCn1ccnc1-c1ccc(Cn2c(=O)n(C)c3cnc(-c4ccccc4C(C)C)nc32)cc1` [Compound I-496, 9-(4-(1-ethyl-1H-imidazol-2-yl)benzyl)-2-(2-isopropylphenyl)-7-methyl-7,9-dihydro-8H-purin-8-one] had an IC50 of under 50 nM.

`CC(C)c1ccccc1-c1ncc2[nH]c(=O)n([C@H](C)c3ccc(-c4nc(C(F)(F)F)cn4C)cc3)c2n1` [Compound I-214, (R)-2-(2-isopropylphenyl)-9-(1-(4-(1-methyl-4-(trifluoromethyl)-1H-imidazol-2-yl)phenyl)ethyl)-7,9-dihydro-8H-purin-8-one] yielded an IC50 of under 50 nM.

For `Cc1ccnn1-c1ccc(Cn2c(=O)[nH]c3cnc(-c4ccccc4C(C)C)nc32)cc1` [Compound I-184, 2-(2-isopropylphenyl)-9-(4-(5-methyl-1H-pyrazol-1-yl)benzyl)-7,9-dihydro-8H-purin-8-one], the IC50 was under 50 nM.

In turn, `CC(C)c1ccccc1-c1ncc2[nH]c(=O)n([C@H](CO)c3ccccc3)c2n1` [Compound I-181, (S)-9-(2-hydroxy-1-phenylethyl)-2-(2-isopropylphenyl)-7,9-dihydro-8H-purin-8-one] gave a 50% inhibitory concentration (IC50) of 200 to 2000 nM.

On to `CC(C)N(C)c1ncccc1-c1ncc2[nH]c(=O)n(Cc3ccc(-c4nc(C(F)(F)F)cn4C)cc3)c2n1` [Compound I-330, 2-(2-(isopropyl(methyl)amino)pyridin-3-yl)-9-(4-(1-methyl-4-(trifluoromethyl)-1H-imidazol-2-yl)benzyl)-7,9-dihydro-8H-purin-8-one], for which the IC50 is 50 to 200 nM.

Turning to `Cn1cc(C(F)(F)F)nc1-c1ccc(Cn2c(=O)[nH]c3cnc(-c4cccnc4N4CC(F)C4)nc32)cc1` [Compound I-334, 2-(2-(3-fluoroazetidin-1-yl)pyridin-3-yl)-9-(4-(1-methyl-4-(trifluoromethyl)-1H-imidazol-2-yl)benzyl)-7,9-dihydro-8H-purin-8-one], the IC50 was under 50 nM.

For the compound `Cc1nc(-c2ccc(Cn3c(=O)n(C)c4cnc(-c5ccccc5C(C)C)nc43)cc2)c(C)s1` [Compound I-304, 9-(4-(2,5-dimethylthiazol-4-yl)benzyl)-2-(2-isopropylphenyl)-7-methyl-7,9-dihydro-8H-purin-8-one], the IC50 was under 50 nM.

`COCC1CCCCN1C(=O)c1ccc(Cn2c(=O)[nH]c3cnc(-c4ccccc4C(C)C)nc32)cc1` (stereo not drawn) [Compound I-400, 2-(2-isopropylphenyl)-9-(4-(2-(methoxymethyl)piperidine-1-carbonyl)benzyl)-7,9-dihydro-8H-purin-8-one] returned an IC50 of 50 to 200 nM.

`CC(C)c1ccccc1-c1ncc2[nH]c(=O)n(Cc3ccc(S(C)(=O)=O)cc3)c2n1` [Compound I-183, 2-(2-isopropylphenyl)-9-(4-(methylsulfonyl)benzyl)-7,9-dihydro-8H-purin-8-one] had an IC50 of over 2000 nM.

The compound `CC(C)c1ccccc1-c1ncc2c(n1)n(Cc1ccc(-c3cc(N4CCOCC4)ncn3)cc1)c(=O)n2C` [Compound I-263, 2-(2-isopropylphenyl)-7-methyl-9-(4-(6-morpholinopyrimidin-4-yl)benzyl)-7,9-dihydro-8H-purin-8-one] gave an IC50 of 200 to 2000 nM.

The compound `CC(C)c1ccccc1-c1ncc2[nH]c(=O)n(Cc3ccc(-n4ccc(C5CCN(C)C5)n4)cc3)c2n1` (stereo not drawn) [Compound I-440, 2-(2-isopropylphenyl)-9-(4-(3-(1-methylpyrrolidin-3-yl)-1H-pyrazol-1-yl)benzyl)-7,9-dihydro-8H-purin-8-one] displayed an IC50 of 200 to 2000 nM.

`Cn1cc(C(F)(F)F)nc1-c1ccc(Cn2c(=O)[nH]c3cnc(-c4cccnc4OC4CC4)nc32)cc1` [Compound I-420, 2-(2-cyclopropoxypyridin-3-yl)-9-(4-(1-methyl-4-(trifluoromethyl)-1H-imidazol-2-yl)benzyl)-7,9-dihydro-8H-purin-8-one] yielded an IC50 of under 50 nM.

As to `COCCNC(=O)Nc1ccc(Cn2c(=O)n(C)c3cnc(-c4ccccc4C(C)C)nc32)cc1` [Compound I-482, 1-(4-((2-(2-isopropylphenyl)-7-methyl-8-oxo-7,8-dihydro-9H-purin-9-yl)methyl)phenyl)-3-(2-methoxyethyl)urea], the IC50 is 200 to 2000 nM.

Compound `CC(C)c1ccccc1-c1ncc2[nH]c(=O)n([C@@H]3CC[C@H]3c3ccc(-n4cccn4)cc3)c2n1` [Compound I-163, 9-((1R,2S)-2-(4-(1H-pyrazol-1-yl)phenyl)cyclobutyl)-2-(2-isopropylphenyl)-7,9-dihydro-8H-purin-8-one] displayed an IC50 of under 50 nM.

In turn, `CC(C)c1ccccc1-c1ncc2[nH]c(=O)n(Cc3ccc(-c4cnn(CCN(C)C)c4)cc3)c2n1` [Compound I-520, 9-(4-(1-(2-(Dimethylamino)ethyl)-1H-pyrazol-4-yl)benzyl)-2-(2-isopropylphenyl)-7,9-dihydro-8H-purin-8-one] returned an IC50 of 200 to 2000 nM.

Turning to `CC(=O)Nc1cccc(Cn2c(=O)[nH]c3cnc(-c4ccccc4C(C)C)nc32)c1` [Compound I-217, N-(3-((2-(2-isopropylphenyl)-8-oxo-7,8-dihydro-9H-purin-9-yl)methyl)phenyl)acetamide], the IC50 was in the range of 200 to 2000 nM.

`CC(C)c1ncccc1-c1ncc2c(n1)n(Cc1ccc(-c3nc(C(F)(F)F)cn3C)cc1)c(=O)n2C1CCOCC1` [Compound I-122, 2-(2-isopropylpyridin-3-yl)-9-(4-(1-methyl-4-(trifluoromethyl)-1H-imidazol-2-yl)benzyl)-7-(tetrahydro-2H-pyran-4-yl)-7,9-dihydro-8H-purin-8-one] displayed an IC50 of 200 to 2000 nM.

Compound `CC(=O)N1CC(n2cc(C(F)(F)F)nc2-c2ccc(Cn3c(=O)[nH]c4cnc(-c5ccccc5C(C)C)nc43)cc2)C1` [Compound I-476, 9-(4-(1-(1-acetylazetidin-3-yl)-4-(trifluoromethyl)-1H-imidazol-2-yl)benzyl)-2-(2-isopropylphenyl)-7,9-dihydro-8H-purin-8-one] came in with an IC50 of under 50 nM.

In the case of `CC(C)c1ncccc1-c1ncc2c(n1)n(Cc1c(F)cc(-c3nc(C(F)(F)F)cn3C)cc1F)c(=O)n2C` [Compound I-128, 9-(2,6-difluoro-4-(1-methyl-4-(trifluoromethyl)-1H-imidazol-2-yl)benzyl)-2-(2-isopropylpyridin-3-yl)-7-methyl-7,9-dihydro-8H-purin-8-one], the IC50 fell in the range of 50 to 200 nM.

Consider `CC(C)c1ccccc1-c1ncc2[nH]c(=O)n(Cc3ccc(-n4ccc([C@@H]5CCCNC5)n4)cc3)c2n1` [Compound I-224, (R)-2-(2-isopropylphenyl)-9-(4-(3-(piperidin-3-yl)-1H-pyrazol-1-yl)benzyl)-7,9-dihydro-8H-purin-8-one], for which the IC50 lay within 50 to 200 nM.

Take `CC(C)c1ccccc1-c1ncc2c(n1)n(Cc1ccc(-c3nc(C(F)(F)F)n(C)n3)cc1)c(=O)n2C` [Compound I-280, 2-(2-isopropylphenyl)-7-methyl-9-(4-(1-methyl-5-(trifluoromethyl)-1H-1,2,4-triazol-3-yl)benzyl)-7,9-dihydro-8H-purin-8-one]: the IC50 is under 50 nM.

`CC(C)c1ccccc1-c1ncc2c(n1)n(Cc1ccc(OCC3CCCN(C)C3)cc1)c(=O)n2C` (stereo not drawn) [Compound I-230, 2-(2-isopropylphenyl)-7-methyl-9-(4-((1-methylpiperidin-3-yl)methoxy)benzyl)-7,9-dihydro-8H-purin-8-one]: the IC50 fell in the range of 200 to 2000 nM.

Compound `CC(C)c1ccccc1-c1ncc2[nH]c(=O)n(Cc3ccc(-n4cc([C@@H](C)O)nn4)cc3)c2n1` [Compound I-347, (R)-9-(4-(4-(1-hydroxyethyl)-1H-1,2,3-triazol-1-yl)benzyl)-2-(2-isopropylphenyl)-7,9-dihydro-8H-purin-8-one] yielded an IC50 of over 2000 nM.

`CC(C)c1ccccc1-c1ncc2c(n1)n(Cc1ccc(-n3cccn3)cc1)c(=O)n2C` [Compound I-6, 9-(4-(1H-pyrazol-1-yl)benzyl)-2-(2-isopropylphenyl)-7-methyl-7,9-dihydro-8H-purin-8-one]: the half-maximal inhibitory concentration (IC50) was 50 to 200 nM.
